Source: PMC5218480 (PLoS ONE, 2017)

Test system: MV-4-11 cells
Assay: Gene expression microarray analysis (Affymetrix PrimeView) and GSEA
Assay type: cell-based, human
Parameters: RFU PODN (11730768_x_at) / Fold change /veh PODN (11730768_x_at) / RFU LINC00158 (11744669_a_at) / Fold change /veh LINC00158 (11744669_a_at) / RFU DUSP10 (11751237_a_at) / Fold change /veh DUSP10 (11751237_a_at) / RFU ID3 (11757404_x_at) / Fold change /veh ID3 (11757404_x_at) / RFU PLEKHG5 (11737974_s_at) / Fold change /veh PLEKHG5 (11737974_s_at) / RFU LRRC4B (11730491_at) / Fold change /veh LRRC4B (11730491_at) / RFU GIMAP4 (11747438_a_at) / Fold change /veh GIMAP4 (11747438_a_at) / RFU KRT8 (11758183_x_at) / Fold change /veh KRT8 (11758183_x_at) / RFU CNN1 (11734310_a_at) / Fold change /veh CNN1 (11734310_a_at) / RFU VPS37D (11726825_at) / Fold change /veh VPS37D (11726825_at) / RFU C10orf10 (11716522_x_at) / Fold change /veh C10orf10 (11716522_x_at) / RFU KIR2DL2 /// KIR2DL4 /// KIR2DL5A /// KIR2DL5B /// KIR2DS1 /// KIR2DS2 /// KIR2DS3 /// KIR2DS4 /// KIR3DL3 /// KIR3DL3 /// KIR3DS1 (11738374_at) / Fold change /veh KIR2DL2 /// KIR2DL4 /// KIR2DL5A /// KIR2DL5B /// KIR2DS1 /// KIR2DS2 /// KIR2DS3 /// KIR2DS4 /// KIR3DL3 /// KIR3DL3 /// KIR3DS1 (11738374_at) / RFU C1QL1 (11718748_at) / Fold change /veh C1QL1 (11718748_at) / RFU TMPRSS4 (11747572_a_at) / Fold change /veh TMPRSS4 (11747572_a_at) / RFU HAMP (11756126_x_at) / Fold change /veh HAMP (11756126_x_at) / RFU RNFT2 (11725882_a_at) / Fold change /veh RNFT2 (11725882_a_at) / RFU NR4A2 (11747474_a_at) / Fold change /veh NR4A2 (11747474_a_at) / RFU ABCC12 (11746883_a_at) / Fold change /veh ABCC12 (11746883_a_at) / RFU TMEM136 (11760407_x_at) / Fold change /veh TMEM136 (11760407_x_at) / RFU CLDN22 /// WWC2 (11732394_at) / Fold change /veh CLDN22 /// WWC2 (11732394_at) / RFU HLA-DPB1 (11760878_x_at) / Fold change /veh HLA-DPB1 (11760878_x_at) / RFU SPINT1 (11716480_a_at) / Fold change /veh SPINT1 (11716480_a_at) / RFU GAP43 (11754022_s_at) / Fold change /veh GAP43 (11754022_s_at) / RFU A4GNT (11735810_at) / Fold change /veh A4GNT (11735810_at) / RFU PRB3 (11715151_x_at) / Fold change /veh PRB3 (11715151_x_at) / RFU TUBB4B (11761932_at) / Fold change /veh TUBB4B (11761932_at) / RFU CAPN14 (11732068_a_at) / Fold change /veh CAPN14 (11732068_a_at) / RFU TMCC2 (11721928_a_at) / Fold change /veh TMCC2 (11721928_a_at) / RFU IRGQ (11745062_a_at) / Fold change /veh IRGQ (11745062_a_at) / RFU FAM174B (11720279_a_at) / Fold change /veh FAM174B (11720279_a_at) / RFU TMPRSS4 (11748680_a_at) / Fold change /veh TMPRSS4 (11748680_a_at) / RFU FAM212B (11763350_a_at) / Fold change /veh FAM212B (11763350_a_at) / RFU PLEKHG5 (11743358_a_at) / Fold change /veh PLEKHG5 (11743358_a_at) / RFU ZSCAN30 (11745921_a_at) / Fold change /veh ZSCAN30 (11745921_a_at) / RFU CMKLR1 (11741424_a_at) / Fold change /veh CMKLR1 (11741424_a_at) / RFU LOC101060620 /// MAPK8IP1 (11723275_at) / Fold change /veh LOC101060620 /// MAPK8IP1 (11723275_at) / RFU SPTSSB (11747773_x_at) / Fold change /veh SPTSSB (11747773_x_at) / RFU PRSS12 (11739890_at) / Fold change /veh PRSS12 (11739890_at) / RFU BIN1 (11741810_x_at) / Fold change /veh BIN1 (11741810_x_at) / RFU WNT11 (11732464_a_at) / Fold change /veh WNT11 (11732464_a_at) / RFU C10orf10 (11716521_a_at) / Fold change /veh C10orf10 (11716521_a_at) / RFU C5orf56 (11738089_at) / Fold change /veh C5orf56 (11738089_at) / RFU CYB561 (11721691_x_at) / Fold change /veh CYB561 (11721691_x_at) / RFU ANKRD19P (11752326_a_at) / Fold change /veh ANKRD19P (11752326_a_at) / RFU OR2T12 /// OR2T33 /// OR2T8 (11738714_s_at) / Fold change /veh OR2T12 /// OR2T33 /// OR2T8 (11738714_s_at) / RFU VCAN (11748164_a_at) / Fold change /veh VCAN (11748164_a_at) / RFU JSRP1 (11732532_at) / Fold change /veh JSRP1 (11732532_at) / RFU KRTAP10-11 (11738290_x_at) / Fold change /veh KRTAP10-11 (11738290_x_at) / RFU MYO3A (11730013_a_at) / Fold change /veh MYO3A (11730013_a_at) / RFU EBF3 (11725865_a_at) / Fold change /veh EBF3 (11725865_a_at) / RFU CAMK2N1 (11719241_x_at) / Fold change /veh CAMK2N1 (11719241_x_at) / RFU C5orf56 (11738088_a_at) / Fold change /veh C5orf56 (11738088_a_at) / RFU OLFML3 (11715873_a_at) / Fold change /veh OLFML3 (11715873_a_at) / RFU LOC100653217 /// NTM (11731650_a_at) / Fold change /veh LOC100653217 /// NTM (11731650_a_at) / RFU MAPK11 (11762145_a_at) / Fold change /veh MAPK11 (11762145_a_at) / RFU FIZ1 (11724087_x_at) / Fold change /veh FIZ1 (11724087_x_at) / RFU OASL (11726364_x_at) / Fold change /veh OASL (11726364_x_at) / RFU SOX15 (11748057_x_at) / Fold change /veh SOX15 (11748057_x_at) / RFU CD79A (11719716_a_at) / Fold change /veh CD79A (11719716_a_at) / RFU HIST1H1D (11736915_at) / Fold change /veh HIST1H1D (11736915_at) / RFU CASKIN2 (11723855_a_at) / Fold change /veh CASKIN2 (11723855_a_at) / RFU LOC730098 (11760151_x_at) / Fold change /veh LOC730098 (11760151_x_at) / RFU OR4N2 (11742367_at) / Fold change /veh OR4N2 (11742367_at) / RFU PRRT2 (11749266_a_at) / Fold change /veh PRRT2 (11749266_a_at) / RFU SNX32 (11753110_a_at) / Fold change /veh SNX32 (11753110_a_at) / RFU CDHR5 (11726645_a_at) / Fold change /veh CDHR5 (11726645_a_at) / RFU RCAN1 (11760418_a_at) / Fold change /veh RCAN1 (11760418_a_at) / RFU FAM167A (11723789_a_at) / Fold change /veh FAM167A (11723789_a_at) / RFU FAM26E (11764081_at) / Fold change /veh FAM26E (11764081_at) / RFU ISYNA1 (11749810_s_at) / Fold change /veh ISYNA1 (11749810_s_at) / RFU ACY1 (11761880_at) / Fold change /veh ACY1 (11761880_at) / RFU 11764098_at / Fold change /veh 11764098_at / RFU SAMD14 (11745864_x_at) / Fold change /veh SAMD14 (11745864_x_at) / RFU NPB (11741838_a_at) / Fold change /veh NPB (11741838_a_at) / RFU TMPRSS6 (11731388_a_at) / Fold change /veh TMPRSS6 (11731388_a_at) / RFU KRTAP10-2 (11738614_at) / Fold change /veh KRTAP10-2 (11738614_at) / RFU ARHGAP8 /// PRR5-ARHGAP8 (11727945_x_at) / Fold change /veh ARHGAP8 /// PRR5-ARHGAP8 (11727945_x_at) / RFU KRTAP5-7 /// NADSYN1 (11734609_at) / Fold change /veh KRTAP5-7 /// NADSYN1 (11734609_at) / RFU RASL12 (11751679_a_at) / Fold change /veh RASL12 (11751679_a_at) / RFU CDKN2B (11736163_a_at) / Fold change /veh CDKN2B (11736163_a_at) / RFU PRF1 (11729649_at) / Fold change /veh PRF1 (11729649_at) / RFU, ZNF638 /// ZNF638-IT1 / Fold change vs veh, ZNF638 /// ZNF638-IT1 / RFU, PANK3 / Fold change vs veh, PANK3 / RFU, SH3YL1 / Fold change vs veh, SH3YL1 / RFU, ZEB2 / Fold change vs veh, ZEB2 / RFU, NRIP1 / Fold change vs veh, NRIP1 / RFU, PTTG1IP / Fold change vs veh, PTTG1IP / RFU, CAPN2 / Fold change vs veh, CAPN2 / RFU, MED14 / Fold change vs veh, MED14 / RFU, SNORA58 / Fold change vs veh, SNORA58 / RFU, C1orf63 / Fold change vs veh, C1orf63 / RFU, LRRFIP1 / Fold change vs veh, LRRFIP1 / RFU, NDUFAF7 / Fold change vs veh, NDUFAF7 / RFU, SLC12A2 / Fold change vs veh, SLC12A2 / RFU, IBTK / Fold change vs veh, IBTK / RFU, ESF1 / Fold change vs veh, ESF1 / Fold change vs veh, TMEM50B / RFU, TAOK1 / Fold change vs veh, TAOK1 / RFU, ACBD3 / Fold change vs veh, ACBD3 / RFU, TMA16 / Fold change vs veh, TMA16 / RFU, RWDD3 / Fold change vs veh, RWDD3 / RFU, BCAT1 / Fold change vs veh, BCAT1 / RFU, EDEM3 / Fold change vs veh, EDEM3 / RFU, TMEM33 / Fold change vs veh, TMEM33 / RFU, WDR75 / Fold change vs veh, WDR75 / RFU, AHCTF1 / Fold change vs veh, AHCTF1 / RFU, TFRC / Fold change vs veh, TFRC / RFU, ZDHHC17 / Fold change vs veh, ZDHHC17 / RFU, NOM1 / Fold change vs veh, NOM1 / RFU, ARL8B / Fold change vs veh, ARL8B / RFU, ZBTB11 / Fold change vs veh, ZBTB11 / RFU, TAMM41 / Fold change vs veh, TAMM41 / RFU, KIAA1704 /// LOC100996395 / Fold change vs veh, KIAA1704 /// LOC100996395 / RFU, ING1 / Fold change vs veh, ING1 / RFU, TRMT61B / Fold change vs veh, TRMT61B / RFU, FUBP3 / Fold change vs veh, FUBP3 / RFU, TP53 / Fold change vs veh, TP53 / RFU, TNKS2 / Fold change vs veh, TNKS2 / RFU, ZFP14 / Fold change vs veh, ZFP14 / RFU, ACTR2 / Fold change vs veh, ACTR2 / RFU, PPP3R1 / Fold change vs veh, PPP3R1 / RFU, PIK3R1 / Fold change vs veh, PIK3R1 / RFU, HNRNPA1 / Fold change vs veh, HNRNPA1 / RFU, RNF170 / Fold change vs veh, RNF170 / RFU, ZNF28 / Fold change vs veh, ZNF28 / RFU, RNGTT / Fold change vs veh, RNGTT / RFU, OGT / Fold change vs veh, OGT / RFU, BRD1 / Fold change vs veh, BRD1 / RFU, MARS / Fold change vs veh, MARS / RFU, ZNF655 / Fold change vs veh, ZNF655 / RFU, FAHD1 / Fold change vs veh, FAHD1 / RFU, BDP1 / Fold change vs veh, BDP1 / RFU, LRRCC1 / Fold change vs veh, LRRCC1 / RFU, ARID1A / Fold change vs veh, ARID1A / RFU, ZNF146 / Fold change vs veh, ZNF146 / RFU, ZNF330 / Fold change vs veh, ZNF330 / RFU, GPN3 / Fold change vs veh, GPN3 / RFU, C9orf123 / Fold change vs veh, C9orf123 / RFU, N4BP2L2 / Fold change vs veh, N4BP2L2 / RFU, ARFIP1 / Fold change vs veh, ARFIP1 / RFU, FAM179B / Fold change vs veh, FAM179B / RFU, BCL10 / Fold change vs veh, BCL10 / RFU, UHRF1BP1L / Fold change vs veh, UHRF1BP1L / RFU, BET1 / Fold change vs veh, BET1 / RFU, CNOT2 / Fold change vs veh, CNOT2 / RFU, ZNF268 / Fold change vs veh, ZNF268 / Fold change vs veh, ZNF507 / RFU, DGCR2 / Fold change vs veh, DGCR2 / RFU, WDSUB1 / Fold change vs veh, WDSUB1 / Fold change vs veh, HSP90B1 /// MIR3652 / RFU, ADSS / Fold change vs veh, ADSS / RFU, GK / Fold change vs veh, GK / RFU, ZNF148 / Fold change vs veh, ZNF148 / RFU, TAF9 / Fold change vs veh, TAF9 / RFU, SLC1A5 / Fold change vs veh, SLC1A5 / RFU, SLMO2 / Fold change vs veh, SLMO2 / RFU, ABCC4 / Fold change vs veh, ABCC4 / RFU, LOC101060439 /// RAP1B / Fold change vs veh, LOC101060439 /// RAP1B / RFU, RFX7 / Fold change vs veh, RFX7 / RFU, GTPBP10 / Fold change vs veh, GTPBP10 / RFU, CNEP1R1 / Fold change vs veh, CNEP1R1 / RFU, BIVM-ERCC5 /// ERCC5 / Fold change vs veh, BIVM-ERCC5 /// ERCC5 / RFU, ILF3 / Fold change vs veh, ILF3 / RFU 11762660_at / Fold change /veh 11762660_at / RFU VCAN (11757783_s_at) / Fold change /veh VCAN (11757783_s_at) / RFU DDX43 (11728927_at) / Fold change /veh DDX43 (11728927_at) / RFU KRT8 (11758188_x_at) / Fold change /veh KRT8 (11758188_x_at) / RFU NKD1 (11759106_at) / Fold change /veh NKD1 (11759106_at) / RFU SRD5A1 (11742802_a_at) / Fold change /veh SRD5A1 (11742802_a_at) / RFU TPSAB1 /// TPSB2 (11721975_s_at) / Fold change /veh TPSAB1 /// TPSB2 (11721975_s_at) / RFU GSTM3 (11746129_a_at) / Fold change /veh GSTM3 (11746129_a_at) / RFU IL23R (11737362_x_at) / Fold change /veh IL23R (11737362_x_at) / RFU TMEM51 (11727254_a_at) / Fold change /veh TMEM51 (11727254_a_at) / RFU PIWIL2 (11732686_x_at) / Fold change /veh PIWIL2 (11732686_x_at) / RFU ORM1 (11744905_x_at) / Fold change /veh ORM1 (11744905_x_at) / RFU CCDC152 (11743942_at) / Fold change /veh CCDC152 (11743942_at) / RFU ECM1 (11717891_a_at) / Fold change /veh ECM1 (11717891_a_at) / RFU IL23R (11748794_a_at) / Fold change /veh IL23R (11748794_a_at) / RFU TNFAIP8L3 (11732012_x_at) / Fold change /veh TNFAIP8L3 (11732012_x_at) / RFU MBOAT4 (11741988_at) / Fold change /veh MBOAT4 (11741988_at) / RFU 11764193_at / Fold change /veh 11764193_at / RFU TMEM53 (11763286_at) / Fold change /veh TMEM53 (11763286_at) / RFU MAGEB2 (11727129_at) / Fold change /veh MAGEB2 (11727129_at) / RFU TMEM200A (11744735_a_at) / Fold change /veh TMEM200A (11744735_a_at) / RFU CCDC152 (11751479_a_at) / Fold change /veh CCDC152 (11751479_a_at) / RFU FAM211A (11726209_a_at) / Fold change /veh FAM211A (11726209_a_at) / RFU RGS16 (11746705_a_at) / Fold change /veh RGS16 (11746705_a_at) / RFU VCAN (11755009_s_at) / Fold change /veh VCAN (11755009_s_at) / RFU RHOB (11743442_s_at) / Fold change /veh RHOB (11743442_s_at) / RFU RGS16 (11720943_a_at) / Fold change /veh RGS16 (11720943_a_at) / RFU RGS16 (11720944_at) / Fold change /veh RGS16 (11720944_at) / RFU, VPS4B / Fold change vs veh, VPS4B / RFU, CREB1 / Fold change vs veh, CREB1 / RFU, DNAJC13 / Fold change vs veh, DNAJC13 / RFU, GNAQ / Fold change vs veh, GNAQ / RFU, CDK5R1 / Fold change vs veh, CDK5R1 / RFU, ZRANB3 / Fold change vs veh, ZRANB3 / RFU, CUL4A / Fold change vs veh, CUL4A / RFU, CCNY / Fold change vs veh, CCNY / RFU, UFL1 / Fold change vs veh, UFL1 / RFU, COG3 / Fold change vs veh, COG3 / RFU, DIAPH2 / Fold change vs veh, DIAPH2 / RFU, SKA2 / Fold change vs veh, SKA2 / RFU, AFF3 / Fold change vs veh, AFF3 / RFU, LMF1 / Fold change vs veh, LMF1 / RFU, IPO11 / Fold change vs veh, IPO11 / RFU, DFFB / Fold change vs veh, DFFB / RFU, FOXP1 / Fold change vs veh, FOXP1 / RFU, CARD8 / Fold change vs veh, CARD8 / RFU, STRN3 / Fold change vs veh, STRN3 / RFU, ADK / Fold change vs veh, ADK / RFU, RASSF2 / Fold change vs veh, RASSF2 / RFU, WIPF1 / Fold change vs veh, WIPF1 / RFU, LARP1B / Fold change vs veh, LARP1B / RFU, RASA1 / Fold change vs veh, RASA1 / RFU, RB1 / Fold change vs veh, RB1 / RFU, PPFIA1 / Fold change vs veh, PPFIA1 / RFU, MAT2A / Fold change vs veh, MAT2A / RFU, CCT5 / Fold change vs veh, CCT5 / RFU, WDR92 / Fold change vs veh, WDR92 / RFU, CUX1 / Fold change vs veh, CUX1 / RFU, TTC7A / Fold change vs veh, TTC7A / RFU, TMEM135 / Fold change vs veh, TMEM135 / RFU, DEPTOR / Fold change vs veh, DEPTOR / RFU, CPM / Fold change vs veh, CPM / RFU, DNAJB6 / Fold change vs veh, DNAJB6 / RFU, CACNA2D3 / Fold change vs veh, CACNA2D3 / RFU, DTX4 / Fold change vs veh, DTX4 / RFU, TFCP2 / Fold change vs veh, TFCP2 / RFU, GMCL1 /// GMCL1P1 / Fold change vs veh, GMCL1 /// GMCL1P1 / RFU, AEBP2 / Fold change vs veh, AEBP2 / RFU, SNHG1 /// SNORD22 /// SNORD25 /// SNORD26 /// SNORD27 /// SNORD28 /// SNORD29 /// SNORD31 / Fold change vs veh, SNHG1 /// SNORD22 /// SNORD25 /// SNORD26 /// SNORD27 /// SNORD28 /// SNORD29 /// SNORD31 / Fold change (Aza/veh), C12orf56 (ProbeSet 11735607_a_at) / Fold change (ACY-1035/veh), C12orf56 (ProbeSet 11735607_a_at) / Fold change (Aza/veh), FGFR1OP (ProbeSet 11751329_s_at) / Fold change (ACY-1035/veh), FGFR1OP (ProbeSet 11751329_s_at) / Fold change (Aza/veh), VPS36 (ProbeSet 11739960_a_at) / Fold change (ACY-1035/veh), VPS36 (ProbeSet 11739960_a_at) / RFU SYPL1 (11715823_x_at) / Fold change /veh SYPL1 (11715823_x_at) / RFU IGFBP7 (11715501_s_at) / Fold change /veh IGFBP7 (11715501_s_at) / RFU REEP3 (11722064_at) / Fold change /veh REEP3 (11722064_at) / RFU IGLL1 (11728026_x_at) / Fold change /veh IGLL1 (11728026_x_at): dose or concentration left out as unconfirmed
Details: MV-4-11 cells, 48 hours

Structure (SMILES): Nc1ncn([C@@H]2O[C@H](CO)[C@@H](O)[C@H]2O)c(=O)n1 [azacitidine]
- RFU MBOAT4 (11741988_at): 11.61 RFU
